According to patent US10995052B2, “Biaromatic propynyl compounds, pharmaceutical and cosmetic compositions containing same, and uses thereof” (GALDERMA RESEARCH & DEVELOPMENT, priority 2016, dated 2021):
pKd: −log10 of the molar value.

What was measured:
Assay in all cases: Transactivation test in HeLa cells (luciferase reporter), apparent Kd by Schild regression
Assay type in all cases: cell-based
RAR gamma = biological target: T1, RAR gamma (Homo sapiens, UniProt P13631); details: stably transfected HeLa cells, versus reference antagonist, 18 hours incubation, read-out: RAR gamma Kdapp
T1 sequence (P13631 178-423 limits assumed): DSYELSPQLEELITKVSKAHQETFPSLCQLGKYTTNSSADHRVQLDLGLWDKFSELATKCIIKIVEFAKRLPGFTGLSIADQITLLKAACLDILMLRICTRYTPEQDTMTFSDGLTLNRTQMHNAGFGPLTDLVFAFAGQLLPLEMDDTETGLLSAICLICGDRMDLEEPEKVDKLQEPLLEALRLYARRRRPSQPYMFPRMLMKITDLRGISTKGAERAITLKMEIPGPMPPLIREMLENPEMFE
Protocol: (§1) Activation of receptors by an agonist (activator) in HeLa cells leads to the expression of a reporter gene, luciferase, which generates light in the presence of a substrate. Therefore the activation of receptors can be measured by quantifying the luminescence produced after incubation of the cells in the presence of a reference antagonist. The activator products displace the antagonist from its site, thus permitting the receptor to be activated. The activity is measured by quantifying the increase in light produced. This measurement determines the activating activity of the useful compound in the invention.
(§2) In this study, a constant is determined that represents the affinity of the molecule for the receptor. This value can fluctuate according to the basal activity and expression of the receptor; it is designated apparent Kd (KdApp). […]
(§3) Full agonist controls, also called 100% controls, (4-[2-(5,5,8,8 tetramethyl-5,6,7,8 tetrahydronaphthalene-2-yl)propenyl]-benzoic acid) and inverse agonist controls, also called 0% controls, (4-{(E)-3-[4-(4-tert-butyl-phenyl)-5,5,8,8-tetramethyl-5,6,7,8-tetrahydro-naphthalen-2-yl]-3-oxo-propenyl}-benzoic acid) are also measured.
(§4) These cross curves allow determining the AC50 (concentration at which 50% activation of the receptor is observed) of the reference ligand at different concentrations of the product to be tested. These AC50s are used to calculate the Schild regression by plotting a line conforming to the Schild equation (“Quantitation in receptor pharmacology” Terry P. Kenakin, Receptors and Channels, 2001, 7, 371-385).
(§5) In the case of an […], the AC50 is calculated by plotting the curve of the product at the concentration of the reference ligand giving 80% activation. The percentage of activation that corresponds to the maximum level of activity obtained is also measured. […]
(§6) The culture medium is removed by turning over and 100 μl of a 1:1 PBS (phosphate buffer solution)/luciferin mixture is added to each well. After 5 minutes, the plates are read by the luminescence reader.

RAR alpha = biological target: T2, RAR alpha (Homo sapiens, UniProt P10276); details: stably transfected HeLa cells, versus reference antagonist, 18 hours incubation, read-out: RAR alpha Kdapp
T2 sequence (P10276 183-417 limits assumed): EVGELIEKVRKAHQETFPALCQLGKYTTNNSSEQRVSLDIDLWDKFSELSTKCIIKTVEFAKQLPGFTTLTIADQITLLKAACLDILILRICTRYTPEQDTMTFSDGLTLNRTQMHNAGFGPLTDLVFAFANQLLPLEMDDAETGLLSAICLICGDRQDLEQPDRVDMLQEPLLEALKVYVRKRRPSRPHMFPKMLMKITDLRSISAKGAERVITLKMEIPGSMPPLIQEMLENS
Protocol: as §1, §2, §3, §4, §5, §6

RAR beta = biological target: T3, RAR beta (Homo sapiens, UniProt P10826); details: stably transfected HeLa cells, versus reference antagonist, 18 hours incubation, read-out: RAR beta Kdapp
T3 sequence (P10826 183-417 limits assumed): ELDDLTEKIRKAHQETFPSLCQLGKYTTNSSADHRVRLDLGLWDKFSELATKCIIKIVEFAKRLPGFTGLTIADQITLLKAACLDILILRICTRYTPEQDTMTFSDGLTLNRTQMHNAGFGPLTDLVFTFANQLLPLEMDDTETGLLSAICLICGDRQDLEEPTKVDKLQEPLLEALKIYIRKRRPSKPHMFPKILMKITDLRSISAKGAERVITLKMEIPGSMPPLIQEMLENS
Protocol: as §1, §2, §3, §4, §5, §6

Q: With `CC1(C)CCC(C)(C)c2cc(-c3cc(-c4ccc(C(=O)O)cc4)ccc3CCCO)ccc21` [Compound 1, 4′-(3-hydroxy-propyl)-3′-(5,5,8,8-tetramethyl-5,6,7,8-tetrahydro-naphthalen-2-yl)-biphenyl-4-carboxylic acid] as the molecule, how does the pKd (RAR gamma) read?
A: Its pKd is 8.40.

Q: What about the pKd (RAR alpha) of the same molecule?
A: The pKd was 6.92.

Q: And the pKd (RAR beta)?
A: Its pKd is 8.40.
